Results on one substance are retold here after US8455435B2, “Remedies for ischemia” (Ludwig-Maximilians-Universitat Munchen, priority 2006, dated 2013).

The assay deals with CD45 positive stem cells in peripheral blood. Kind of assay: Mobilization of bone marrow derived cells by PTH(1-34), flow cytometry of peripheral blood. The assay is classed as in vivo, C57BL/6 mice. How it is done: 8-12 week old C57BL/6 mice (n=5) were either treated with PTH (80 μg/kg/d) or saline daily for 5 or 14 consecutive days. At day 6 and day 14, 1 ml of peripheral blood was harvested from each mouse by aspirating the carotid artery. To define the number of leukocytes, heparinized blood samples were analyzed using a conventional hematological cell analyzer (Sysmex XE 2100). Mononuclear cells were separated by density-gradient centrifugation using Histopaque solution (1.077 g/ml, Sigma Chemicals), purified and resuspended in phosphate-buffered saline (PBS) containing 1% bovine serum albumin. Cells were incubated for 40 minutes in the dark at 4° C. with the following fluorescein-isothiocyanate (FITC), phycoerythrin (PE), and peridinin-chlorophyll-protein (PerCP) conjugated monoclonal antibodies: CD45− PerCP, CD34-FITC, CD31-PE, Sca-1-PE and c-kit-PE (all from BD Pharmingen). Matching isotype antibodies (BD Pharmingen) served as controls. Cells were analyzed by 3-color flow cytometry using a Coulter® Epics® XL-MCL™ flow cytometer (Beckman Coulter). Each analysis included 20000 events.

Turning to rat PTH (1-34), where the note is “day 6”, the “increase of CD45+/CD34+ cells” value came out at 4.4 fold, the “increase of CD45+/CD34+/CD31+ cells” value was determined as 2.9 fold, the “increase of CD45+/CD34+/Sca-1+ cells” value amounted to 2.9 fold and the “increase of CD45+/CD34+/c-kit+ cells” value was 6.1 fold. Moreover, where the note is “day 14”, the “increase of CD45+/CD34+ cells” value is on record as 6.0 fold, the “increase of CD45+/CD34+/CD31+ cells” value turned out to be 3.1 fold, the “increase of CD45+/CD34+/Sca-1+ cells” value was 2.9 fold and the “increase of CD45+/CD34+/c-kit+ cells” value was determined as 9.0 fold.
